Source: patent publication US12390498B2, “Treatment of clostridium difficile infection” (Vedanta Biosciences, Inc., priority 2016, dated 2025)

Tests used:
[1] = Short-chain fatty acid producing abilities of Composition F strains
[2] = system: Clostridium difficile infection (CDI); conditions: cited from earlier work

Compound | SCFAs (short chain fatty acids produced) [1] | treated patients experiencing CDI relapse ([2]; CDI patients) [%] | preventing recurrent CDI ([2]; comparison with vancomycin)
Bacteroides cellulosilyticus | A, S | – | –
CCc1c(Cl)c(O)c(Cl)c(O)c1C(=O)O[C@H]1[C@H](O)[C@H](OC)[C@H](OC/C2=C\C=C\C[C@H](O)/C(C)=C/[C@H](CC)[C@@H](O[C@@H]3OC(C)(C)[C@@H](OC(=O)C(C)C)[C@H](O)[C@@H]3O)/C(C)=C/C(C)=C/C[C@@H]([C@@H](C)O)OC2=O)O[C@@H]1C [fidaxomicin] | – | 14 | superior to vancomycin
